# From ChEMBL document CHEMBL1154194, “Glucose-containing flavones--their synthesis and antioxidant and neuroprotective activities” (Bioorg Med Chem Lett, 2009)
# Columns and labels:
# [1] = system: Radical scavenging activity; assay: Antioxidant activity assessed as DPPH radical scavenging activity after 30 mins; format: functional
# [2] = Antioxidant activity assessed as inhibition of xanthine/xanthine oxidase system-induced superoxide anion radical scavenging activity after 20 mins; format: functional
# Liver = assay: Antioxidant activity in rat liver homogenate assessed as inhibition of iron-ascorbic acid mix-induced lipid peroxidation by TBARS assay; format: functional, tissue-based
# [3] = (§1) Neuroprotective activity against H2O2-induced neuronal damage in Sprague-Dawley rat cerebral cortical cells after 20 to 24 hrs by MTT assay; format: functional
# Rattus norvegicus = species on record: Rattus norvegicus; assay: as §1; format: functional
SMILES,IC50 [1] [µM],IC50 [2] [µM],IC50 (Liver) [µM],IC50 [3] [µM],Activity (Rattus norvegicus)
O=c1cc(-c2ccc(O)c(O)c2)oc2cc(O)cc(O)c12 [LUTEOLIN],16.2,8.66,24.7,3.75,–
O=C(COc1cc(O)c2c(=O)cc(-c3ccc(O)c(O)c3)oc2c1)OC[C@@H]1OC(O)[C@@H](O)[C@H](O)[C@H]1O (stereo partly specified),16.7,6.22,47.9,12.7,Dose-dependent effect
O=c1cc(-c2ccc(O)c(O)c2)oc2cc(OCCOC[C@@H]3OC(O)[C@@H](O)[C@H](O)[C@H]3O)cc(O)c12 (stereo partly specified),18.5,3.53,47.8,15.7,Dose-dependent effect
O=C1O[C@H]([C@@H](O)CO)C(O)=C1O [ASCORBIC ACID],41,> 300,> 300,–,–
COc1c(-c2ccc(O)c(O)c2)oc2cc(OCC(=O)OC[C@@H]3OC(O)[C@@H](O)[C@H](O)[C@H]3O)cc(O)c2c1=O (stereo partly specified),19.7,32.9,66.7,5.34,Dose-dependent effect
COc1c(-c2ccc(O)c(O)c2)oc2cc(OCCOC[C@@H]3OC(O)[C@@H](O)[C@H](O)[C@H]3O)cc(O)c2c1=O (stereo partly specified),15.6,12.8,78,58.4,Dose-dependent effect
COc1c(-c2ccc(O)c(O)c2)oc2cc(O)cc(O)c2c1=O [3-O-METHYLQUERCETIN],14.2,17.4,19,3.5,–
O=c1cc(-c2ccc(O)c(O)c2)oc2cc(OC3O[C@@H](CO)[C@H](O)[C@@H](O)[C@@H]3O)cc(O)c12 (stereo partly specified),17.3,3.28,40.4,7.33,Dose-dependent effect
COc1c(-c2ccc(O)c(O)c2)oc2cc(OC3O[C@@H](CO)[C@H](O)[C@@H](O)[C@@H]3O)cc(O)c2c1=O (stereo partly specified),16.9,10.2,43.2,30.7,Dose-dependent effect
